Where two headings read alike, the source gives them in different places. Residues, ends and D or L forms follow the SMILES beside them.
Key:
[1] = molecular target: T1, MC1 receptor (B16/F1 murine melanoma cells) (Mus musculus, UniProt Q01727); test: In vitro competitive binding assay in B16/F1 cells (125I-Tyr2-NDP-MSH displacement); details: 25° C., 2 h
T1 construct: host or cells: B16/F1 murine melanoma cells
Description: In vitro Competitive Binding Assay: The IC50 values of DOTA-CycMSH and DOTA-GlyGlu-CycMSH were determined by using methods described previously (8). B16/F1 cells were harvested and seeded into a 24-well cell culture plate (5×10^5/well) and incubated at 37° C. overnight. After being washed once with binding media (MEM with 25 mM HEPES, pH 7.4, 0.2% BSA, 0.3 mM 1,10-phenathroline), the cells were incubated at room temperature (25° C.) for 2 h with approximately 50,000 cpm of ^125I-Tyr^2-[Nle^4, D-Phe^7]-α-MSH {NDP-MSH} (GE HealthCare, Piscataway, N.J.) in presence of increasing concentrations of DOTA-CycMSH or DOTA-GlyGlu-CycMSH in 0.3 ml of binding media. The reaction media were aspirated after incubation. Cells were rinsed with 0.5 ml of ice-cold pH 7.4, 0.2% BSA/0.01 M PBS twice and lysed in 0.5 ml of 1 N NaOH for 5 minutes. The activities in cells were measured in a gamma counter. The IC50 values for the peptides were calculated by using the Grafit software (Erithacus Software Limited, UK).
In vitro Competitive Binding Assay: The IC50 values of DOTA-GluGlu-CycMSH and Ac-GluGlu-CycMSH[DOTA] were determined by using methods described previously (12). B16/F1 cells were harvested and seeded into a 24-well cell culture plate (5×10^5/well) and incubated at 37° C. overnight. After being washed once with binding media (MEM with 25 mM HEPES, pH 7.4, 0.2% BSA, 0.3 mM 1,10-phenathroline), the cells were incubated at 25° C. for 2 h with approximately 50,000 cpm of ^125I-(Tyr^2)-NDP-MSH in the presence of increasing concentrations (10^−13 to 10^−6 M) of DOTA-GluGlu-CycMSH or Ac-GluGlu-CycMSH[DOTA] in 0.3 ml of binding media. The reaction media were aspirated after incubation. Cells were rinsed with 0.5 ml of ice-cold pH 7.4; 0.2% BSA/0.01 M PBS twice and lysed in 0.5 ml of 1 N NaOH for 5 min. The activities associated with cells were measured in a Wallac 1480 automated gamma counter (PerkinElmer, N.J.). The IC50 values of the peptides were calculated by using Prism software (GraphPad Software, La Jolla, Calif.).

[2] = molecular target: T2, MC1 receptor (B16/F10 murine melanoma cells) (Mus musculus, UniProt Q01727); test: In vitro competitive binding assay in B16/F10 cells (125I-(Tyr2)-NDP-MSH displacement); details: 25° C., 2 h, read-out: IC50 (MC1 receptor binding affinity)
T2 construct: host or cells: B16/F10 murine melanoma cells
T2 sequence (Q01727 whole entry): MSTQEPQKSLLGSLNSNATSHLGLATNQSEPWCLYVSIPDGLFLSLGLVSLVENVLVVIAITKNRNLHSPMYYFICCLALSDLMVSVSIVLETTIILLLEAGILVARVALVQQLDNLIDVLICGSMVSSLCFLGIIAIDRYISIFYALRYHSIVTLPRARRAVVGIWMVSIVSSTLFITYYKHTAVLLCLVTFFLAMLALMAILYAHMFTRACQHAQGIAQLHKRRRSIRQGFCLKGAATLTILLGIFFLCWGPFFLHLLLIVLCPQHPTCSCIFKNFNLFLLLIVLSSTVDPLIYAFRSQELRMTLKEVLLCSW
Description: In vitro Competitive Binding Assay: The IC50 value of DOTA-GlyGlu-CycMSH was determined in B16/F10 cells. The cells were harvested and seeded into a 24-well cell culture plate (5×10^5/well) and incubated at 37° C. overnight. After being washed once with binding media, the cells were incubated at 25° C. for 2 h with approximately 50,000 cpm of ^125I-(Tyr^2)-NDP-MSH in the presence of increasing concentrations of DOTA-GlyGlu-CycMSH (10^−12 to 10^−5 M) in 0.3 mL of binding media. The reaction media were aspirated after incubation. Cells were rinsed with 0.5 mL of ice-cold pH 7.4, 0.2% BSA/0.01 M PBS twice, and then lysed in 0.5 mL of 1 N NaOH for 5 min. The activities associated with the cells were measured in a gamma counter. The IC50 value was calculated by using Prism software.

[3] = Urinary metabolites by HPLC in B16/F1 melanoma-bearing C57 mice; format: in vivo, mouse; details: urine, 2 h post-injection
Description: Urinary Metabolites of ^111In-DOTA-CycMSH and ^111In-DOTA-GlyGlu-CycMSH: One hundred microliter of HPLC purified ^111In-DOTA-CycMSH (0.74-1.11 MBq, 0.82-1.12 ng) or ^111In-DOTA-GlyGlu-CycMSH (0.74-1.11 MBq, 0.90-1.35 ng) was injected into each B16/F1 murine melanoma-bearing C57 mouse through the tail vein. At 2 h after dose administration, mice were sacrificed and the urine was collected. The radioactive metabolites in the urine were analyzed by injecting aliquots of urine into HPLC. A 20-minute gradient of 16-26% acetonitrile/20 mM HCl was used for the urine analysis.

[4] = Stability in mouse serum monitored by RP-HPLC; format: in vitro ADME; details: 37° C., 24 h incubation
Description: Complexation of the Peptide with ^111In: ^111In-DOTA-CycMSH and ^111In-DOTA-GlyGlu-CycMSH were prepared using a 0.5 M NH4OAc-buffered solution at pH 5.4. Briefly, 50 μl of ^111InCl3 (18.5-37.0 MBq in 0.05 M HCl), 10 μl of 1 mg/ml DOTA-CycMSH or DOTA-GlyGlu-CycMSH aqueous solution and 400 μl of 0.5 M NH4OAc (pH 5.4) were added into a reaction vial and incubated at 75° C. for 45 min. After the incubation, 20 μl of 0.5% EDTA aqueous solution was added into the reaction vial to scavenge potential unbound ^111In. The radiolabeled complexes were purified to single species by Waters RP-HPLC (Milford, Mass.) on a Grace Vadyc C-18 reverse phase analytical column (Deerfield, Ill.) using a 20-minute gradient of 16-26% acetonitrile in 20 mM HCl aqueous solution with a flowrate of 1 ml/min. Purified peptide samples were purged with N2 gas for 20 minutes to remove the acetonitrile. The pH of final solution was adjusted to 7.4 with 0.1 N NaOH and normal saline for animal studies. The stability of ^111In-DOTA-CycMSH and ^111In-DOTA-GlyGlu-CycMSH was determined by incubation in mouse serum at 37° C. according to the published procedure (20) for various time periods, and monitored for degradation by RP-HPLC.

[5] = Biodistribution in B16/F1 murine melanoma-bearing C57 mice; format: in vivo, mouse; details: female, C57, mouse, iv, 0.037 MBq, total radioactivity; for tissue uptake: all time points (2, 4, 24 h)
Description: (§1) Biodistribution Studies: All the animal studies were conducted in compliance with Institutional Animal Care and Use Committee approval. The pharmacokinetics of ^111In-DOTA-CycMSH and ^111In-DOTA-GlyGlu-CycMSH were determined in B16/F1 murine melanoma-bearing C57 female mice (Harlan, Indianapolis, Ind.). C57 mice were inoculated subcutaneously with 1×10^6 B16/F1 murine melanoma cells in the right flank. After 10 days, when the weight of tumors reached approximately 0.2 g, 0.037 MBq of ^111In-DOTA-CycMSH or ^111In-DOTA-GlyGlu-CycMSH was injected into each mouse through the tail vein. Groups of 5 mice were sacrificed at 2, 4 and 24 h post-injection, and tumors and organs of interest were harvested, weighed and counted. Blood values were taken as 6.5% of the whole-body weight. The tumor uptake specificity of ^111In-DOTA-CycMSH and ^111In-DOTA-GlyGlu-CycMSH was determined by blocking tumor uptake with the co-injection of 10 μg (6.07 nmol) of unlabeled NDP-MSH, a linear α-MSH peptide analogue with picomolar affinity for the MC1 receptors present on murine melanoma cells. Statistical analysis was performed using the Student's t-test for unpaired data.

[6] = test system: B16/F1 murine melanoma-bearing C57 mice; test: as above; format: in vivo, mouse
Description: as §1

[7] = test system: endocytosis in tubular cells; details: rat model, literature (27); cited from earlier work

T1 sequence (Q01727 whole entry): as above

CCCC[C@@H]1NC(=O)[C@@H](NC(=O)CN2CCN(CC(=O)O)CCN(CC(=O)O)CCN(CC(=O)O)CC2)CCCCNC(=O)[C@H](CC(=O)O)NC(=O)[C@H](C(C)C)NC(=O)[C@@H]2CCCN2C(=O)[C@H](CCCNC(=N)N)NC(=O)CNC(=O)[C@H](Cc2c[nH]c3ccccc23)NC(=O)[C@H](CCCNC(=N)N)NC(=O)[C@@H](Cc2ccccc2)NC(=O)[C@H](Cc2c[nH]cn2)NC(=O)[C@H](CCC(=O)O)NC1=O [DOTA-CycMSH] (HELM PEPTIDE1{[O=C(O)CN1CCN(CC(=O)O)CCN(CC(=O)[*:2])CCN(CC(=O)O)CC1].K.[Nle].E.H.[dF].R.W.G.R.P.V.D}$PEPTIDE1,PEPTIDE1,2:R3-13:R2$$$V2.0)
IC50 [1]: 1.75 nM

CCCC[C@@H]1NC(=O)[C@@H](NC(=O)[C@H](CCC(=O)O)NC(=O)[C@H](CCC(=O)O)NC(=O)CN2CCN(CC(=O)O)CCN(CC(=O)O)CCN(CC(=O)O)CC2)CCCCNC(=O)[C@H](CC(=O)O)NC(=O)[C@H](C(C)C)NC(=O)[C@@H]2CCCN2C(=O)[C@H](CCCNC(=N)N)NC(=O)CNC(=O)[C@H](Cc2c[nH]c3ccccc23)NC(=O)[C@H](CCCNC(=N)N)NC(=O)[C@@H](Cc2ccccc2)NC(=O)[C@H](Cc2c[nH]cn2)NC(=O)[C@H](CCC(=O)O)NC1=O [DOTA-GluGlu-CycMSH, 1,4,7,10-tetraazacyclododecane-1,4,7,10-tetraacetic acid-Glu-Glu-c[Lys-Nle-Glu-His-DPhe-Arg-Trp-Gly-Arg-Pro-Val-Asp]] (HELM PEPTIDE1{[O=C(O)CN1CCN(CC(=O)O)CCN(CC(=O)[*:2])CCN(CC(=O)O)CC1].E.E.K.[Nle].E.H.[dF].R.W.G.R.P.V.D}$PEPTIDE1,PEPTIDE1,4:R3-15:R2$$$V2.0)
IC50 [1]: 6.73 nM

CCCC[C@@H]1NC(=O)[C@@H](NC(=O)[C@H](CCC(=O)O)NC(=O)CNC(=O)CN2CCN(CC(=O)O)CCN(CC(=O)O)CCN(CC(=O)O)CC2)CCCCNC(=O)[C@H](CC(=O)O)NC(=O)[C@H](C(C)C)NC(=O)[C@@H]2CCCN2C(=O)[C@H](CCCNC(=N)N)NC(=O)CNC(=O)[C@H](Cc2c[nH]c3ccccc23)NC(=O)[C@H](CCCNC(=N)N)NC(=O)[C@@H](Cc2ccccc2)NC(=O)[C@H](Cc2c[nH]cn2)NC(=O)[C@H](CCC(=O)O)NC1=O [DOTA-GlyGlu-CycMSH, DOTA-Gly-Glu-c[Lys-Nle-Glu-His-DPhe-Arg-Trp-Gly-Arg-Pro-Val-Asp]] (HELM PEPTIDE1{[O=C(O)CN1CCN(CC(=O)O)CCN(CC(=O)[*:2])CCN(CC(=O)O)CC1].G.E.K.[Nle].E.H.[dF].R.W.G.R.P.V.D}$PEPTIDE1,PEPTIDE1,4:R3-15:R2$$$V2.0)
IC50 [1]: 0.9 nM
IC50 [2]: 2.43 nM

CCCC[C@@H]1NC(=O)[C@@H](NC(=O)CN2CCN(CC(=O)O)CCN(CC(=O)O)CCN(CC(=O)O)CC2)CCCCNC(=O)[C@H](CC(=O)O)NC(=O)[C@H](C(C)C)NC(=O)[C@@H]2CCCN2C(=O)[C@H](CCCNC(=N)N)NC(=O)CNC(=O)[C@H](Cc2c[nH]c3ccccc23)NC(=O)[C@H](CCCNC(=N)N)NC(=O)[C@@H](Cc2ccccc2)NC(=O)[C@H](Cc2c[nH]cn2)NC(=O)[C@H](CCC(=O)O)NC1=O [^111In-DOTA-CycMSH, metal not drawn] (HELM PEPTIDE1{[O=C(O)CN1CCN(CC(=O)O)CCN(CC(=O)[*:2])CCN(CC(=O)O)CC1].K.[Nle].E.H.[dF].R.W.G.R.P.V.D}$PEPTIDE1,PEPTIDE1,2:R3-13:R2$$$V2.0)
urinary metabolites by RP-HPLC [3]: transformed to two more polar metabolites
stability in mouse serum [4]: stable
tissue uptake ([5]; bone, read-out: bone uptake): < 0.2 %ID/g
kidney uptake at 24 h ([5]; kidney, 24 h after dose administration): 16 ± 2.3 %ID/g
tissue uptake ([5]; normal organs except the kidneys, read-out: normal organ uptakes except for the kidneys): < 0.8 %ID/g
tissue uptake at 2 h ([5]; tumor, 2 h post-injection, tail vein): 9.53 ± 1.41 %ID/g
tissue uptake at 4 h ([5]; tumor, 4 h post-injection, tail vein): 7.54 ± 0.7 %ID/g
tissue uptake at 24 h ([5]; tumor, 24 h post-injection, tail vein): 2.22 ± 0.51 %ID/g
dose excreted ([5]; urine, by 2 h post-injection, read-out: injected radioactivity cleared through the urinary system): ~90%
tumor uptake with NDP co-injection as % of the tumor uptake without NDP co-injection ([6]; 10 μg (6.07 nmol) non-radiolabeled NDP co-injection, 2 h after dose administration): 3.0%
tumor uptake ([6]; 2 h post-injection, tail vein): 9.53±1.41 % ID/g

COc1cc2c(c(OC)c1OC)-c1ccc(OC)c(=O)cc1[C@@H](NC(C)=O)CC2 [colchicine]
decrease of the renal uptake of radiolabeled peptide [7]: up to 25%

From patent US11160887B2, “Compositions for use in diagnosing and treating melanoma, including metastatic melanoma and methods related to same” (UNM RAINFOREST INNOVATIONS, priority 2008, dated 2021)
